From US6258785A, “Crystalline 9-E-(O-methyl)oxime of 11, 12-dideoxy-3-de(2,6-dideoxy-3-C-methyl-3-O-methyl-α-L-ribohexopyrano syloxy)-6-O-methyl-12,11-(iminocarbonyl-(2-(3-(4-(3-pyridinyl)1H-imadazol-1 -yl)propyl)hydrazono))-3-oxoerythromycin” (Pfizer Inc., priority 1999, dated 2001)
Where a name gives a salt, the structure may show the parent alone.

Experiments:
[1] = type: physicochemical; conditions: phosphate buffer, pH 6.5
Experimental: Amorphous 9-E-(O-methyl)oxime of 11,12-dideoxy-3-de(2,6-dideoxy-3-C-methyl-3-O-methyl-α-L-ribohexopyranosyloxy)-6-O-methyl-12,11-(iminocarbonyl-(2-(3-(4-(3-pyridinyl)-1H-imidazol-1-yl)propyl)hydrazono))-3-oxoerythromycin (130 g) was suspended in 3L of isopropyl ether containing 3% ethanol. The suspension was heated to 60° C. overnight and stirring was continued at room temperature (about 20-25° C.) for an additional 3 days. The resulting solid was collected by filtration to give 81 g of the title compound; mp 177° C. […] The crystals were characterized by the powder X-ray diffraction pattern noted below.
To a solution of amorphous 9-E-(O-methyl)oxime of 11,12-dideoxy-3-de(2,6-dideoxy-3-C-methyl-3-O-methyl-α-L-ribohexopyranosyloxy)-6-O-methyl-12,11-(iminocarbonyl-(2-(3-(4-(3-pyridinyl)-1H-imidazol-1-yl)propyl)hydrazono))-3-oxoerythromycin (200 mg) in 3 mL of CH2 Cl2 was added 1.19 mL of 2M solution of methanesulfonic acid in CH2 Cl2. The solution was stirred at room temperature (about 20-25° C.) for 15 minutes, and the solvent was evaporated. The residue was dissolved in 2 mL of ethyl acetate, and to this solution was added 1 mL of isopropyl ether. The solution was concentrated to approximately 0.5 mL and was left standing at room temperature (about 20-25° C.). The resulting crystals were collected by filtration to 175 mg of the title compound; mp: 193-194° C. […]

[2] = Hygroscopicity of crystalline form; type: physicochemical; conditions: crystalline hemihydrate form of the free base

Row | Compound | water solubility of the resulting crystals [1] | hygroscopicity [2]
1 | CC[C@H]1OC(=O)[C@H](C)C(=O)[C@H](C)[C@@H](O[C@@H]2O[C@H](C)C[C@H](N(C)C)[C@H]2O)[C@](C)(OC)C[C@@H](C)/C(=N\OC)[C@H](C)[C@H]2N(NCCCn3cnc(-c4cccnc4)c3)C(=O)N[C@]12C [Example 1, 9-E-(O-Methyl)oxime of 11,12-Dideoxy-3-de(2. 6-dideoxy-3-C-methyl-3-O-methyl-α-L-ribohexopyranosyloxy)-6-O-methyl-12,11-(iminocarbonyl-(2-(3-(4-(3-pyridinyl)-1H-imidazol-1-yl)propyl)hydrazono))-3-oxoerythromycin hemihydrate] | greater than 11 mg/ml | non-hygroscopic
2 | CC[C@H]1OC(=O)[C@H](C)C(=O)[C@H](C)[C@@H](O[C@@H]2O[C@H](C)C[C@H](N(C)C)[C@H]2O)[C@](C)(OC)C[C@@H](C)/C(=N\OC)[C@H](C)[C@H]2N(NCCCn3cnc(-c4cccnc4)c3)C(=O)N[C@]12C [Example 2, Methanesulfonic Acid Salt of 9-E-(O-Methyl)oxime of 11,12-dideoxy-3-de(2,6-dideoxy-3-C-methyl-3-O-methyl-α-L-ribohexopyranosyloxy)-6-O-methyl-12,11-(iminocarboxyl-(2-(3-(4-(3-pyridinyl)-1H-imidazol-1-yl)-propyl)hydrazo))-3-oxoerythromycin] | 24 mg/mL | –
